The record followed here is patent US20100028319A1, “COMPOSITION FOR PREVENTION OR TREATMENT OF DIABETES” (KANEKA CORPORATION, priority 2007, published 2010).

The test system of assay [1] is HIT-T15 cells. Briefly: Effects on ATP production (intracellular ATP level, ATPLite) in HIT-T15 cells. It counts as cell-based. The note with it: 24 h + 24 h cultivation. Here is the method: Ham'F12 medium (GIBCO) containing 200 units of penicillin (GIBCO), […] streptomycin (GIBCO), and 10% fetal bovine serum (GIBCO) is normally used as a growth medium for cultivating HIT-T15 cells.
A growth medium containing a fetal bovine serum at a concentration of 0.5% was placed in each well of a 96-well microplate, and HIT-T15 cells were seeded in the wells at a density of 1×10^4 cells/well. Next day, the growth medium of each well was replaced with a growth medium containing 0.5% fetal bovine serum, in which reduced coenzyme A was further added to a final concentration of 6.25, 12.5, 25, 50 or 100 μg/ml. Twenty-four hours later, the medium of each well was removed and replaced with a growth medium (containing 10% fetal bovine serum) in which reduced coenzyme A was added at the same concentration as mentioned above, and cultivation was continued for another 24 hours. After washing three times with PBS, the intracellular ATP level was measured using ATPLite (PerkinElmer).
A growth medium containing a fetal bovine serum at a concentration of 0.5% was placed in each well of a 96-well microplate, and the cells were seeded in the wells at a density of 1×10^4 cells/well. Next day, the growth medium of each well was replaced with a growth medium containing 0.5% fetal bovine serum, in which reduced coenzyme A or three kinds of coenzyme A precursors (pantothenic aid, pantethine, cystein) or oxidized coenzyme A was added. The coenzyme A precursors and the oxidized coenzyme A were added at the same molar concentrations as that of the reduced coenzyme A. Twenty-four hours later, the medium of each well was removed and replaced with a growth medium (containing 10% fetal bovine serum) in which reduced coenzyme A, the coenzyme A precursor, or oxidized coenzyme A was added at the same concentration as mentioned above, and cultivation was continued for another 24 hours. After washing three times with PBS, the intracellular ATP level was measured using ATPLite (PerkinElmer).

For assay [2], the system named is HIT-T15 cells. Briefly: Glucose-responsive insulin secretion in HIT-T15 cells (ELISA). It counts as cell-based. The note with it: 50 μg/ml reduced coenzyme A; 20 mM glucose load; supernatant collected at intervals of 30 minutes; FIG. 3. Here is the method: HIT-T15 cells were seeded in the wells of a 96-well plate at a density of 50,000 cells/100 μl medium/well. An RPMI 1640 medium (GIBCO) containing 1% fetal bovine serum and 6 mM glucose was used at this time. Twenty-four hours later, the medium of each well was replaced with an RPMI 1640 medium (containing 1% fetal bovine serum and 6 mM glucose) in which reduced coenzyme A was added to a final concentration of 50 μg/ml. Another 24 hours later, the medium of each well was replaced with an RPMI 1640 medium (containing 10% fetal bovine serum and 6 mM glucose) in which reduced coenzyme A was added to a final concentration of 50 μg/ml. Yet another 24 hours later, the wells were washed with Krebs-Ringer buffer containing 10 mM of HEPES (KRB-HEPES), and further added with 100 μl of KRB-HEPES, followed by culturing for one hour. Next, after removal of the KRB-HEPES, the wells were washed with the same buffer. To the wells was added 100 μl of KRB-HEPES containing 20 mM of glucose, and the supernatant liquid was collected at intervals of 30 minutes for storing frozen. At a later date, the insulin amount in the supernatant liquid samples was assayed using ELISA (Lebis).

[3] abbreviates: same molar concentrations, FIG. 2.

Molecules are shown by their SMILES.

As to `CC(C)(COP(=O)(O)OP(=O)(O)OC[C@H]1O[C@@H](n2cnc3c(N)ncnc32)[C@H](O)[C@@H]1OP(=O)(O)O)[C@@H](O)C(=O)NCCC(=O)NCCS` [reduced coenzyme A], the “intracellular ATP level in HIT-T15 cells” value with HIT-T15 cells [1] (reduced coenzyme A added at 6.25, 12.5, 25, 50 or 100 μg/ml, FIG. 1) is given as “significantly increased”. Besides, in the assay with HIT-T15 cells [1] (setting [3]), the “ATP production in comparison to addition of oxidized coenzyme A” value is listed as “promoted ATP production significantly in comparison to addition of oxidized coenzyme A”; the “ATP production in comparison to additions of the precursors (pantothenic acid, pantethine, cystein) and a mixture of the three precursors” value is listed as “promoted ATP production significantly in comparison to additions of the precursors”. Moreover, the “glucose-responsive insulin secretion in HIT-T15 cells” value in the assay with HIT-T15 cells [2] is on record as “significantly promoted”.
